Results: patent publication US20180318311A1, “TRICYCLIC 2-QUINOLINONES AS ANTIBACTERIALS” (priority 2017, published 2018)
Values after ≈ are worked out from the molar mass of the structure shown. Counter-ions that a name gives are not always drawn. Like-named read-outs stand apart in the source and are kept apart here.

Key:
Assay type in all cases: cell-based
[1] = system: E. coli ATCC 25922 (NB27001); test: MIC by broth microdilution, E. coli NB27001; conditions: Escherichia coli, ATCC25922, CAMHB, 35° C., 20 hours, read-out: Antibacterial activity (MIC) NB27001
Experimental: (§1) Bacterial isolates were cultivated from −80° C. frozen stocks by overnight passages at 35° C. in ambient air on Mueller-Hinton agar plates (MHA, Becton Dickinson, Franklin Lakes, NB) with the exception of S. pneumoniae which was grown overnight at 35° C. in the presence of 5% CO2 on blood agar plates (tryptic soy agar with 5% sheep blood (Thermo Scientific, Waltham, Mass.) . The following quality control and wild type strains were obtained from the American Type Culture Collection (ATCC; Rockville, Md.) and are coded in the Novartis strain collection as indicated: E. coli ATCC 25922 (NB27001), E. faecalis ATCC 29212 (NB04001), S. aureus ATCC 49951 (NB01006) and S. pneumoniae ATCC […] (NB07001). […] P. aeruginosa NB52019, obtained from Queen's University (Kingston, Ontario, Canada), is the wild-type PAO1 strain.
(§2) Minimal Inhibitory Concentrations (MIC) were determined by the broth microdilution method in accordance with Clinical and Laboratories Institute (CLSI) guidelines. In brief, fresh bacterial overnight cultures were re-suspended in sterile saline, adjusted to a 0.5 McFarland turbidity standard and then diluted to yield a final inoculum of approximately 5×10^5 colony-forming units (CFU)/mL. All bacterial suspensions were prepared in cation adjusted Mueller-Hinton Broth (CAMHB; Becton Dickinson, Franklin Lakes, N.J.;) with the exception of S. pneumoniae which was prepared in CAMHB supplemented with 5% lysed horse blood (Hardy Diagnostics, Santa Maria, Calif.). Two-fold serial dilutions of compounds were prepared in 100% dimethyl sulfoxide (DMSO) at 100-fold the highest final assay concentration; the resulting dilution series of compounds were diluted 1:10 with sterile water. Ten μL of the drug dilution series in 10% DMSO was transferred to microtiter wells and 90 μL of bacterial suspension was inoculated into the wells. All inoculated microdilution trays were incubated in ambient air at 35° C. for 20 hours. Following incubation, assay plates were read in a microtiter plate reader at 600 nm and visually inspected to confirm the MIC endpoint well with the OD value. The lowest concentration of the compound that prevented visible growth was recorded as the MIC (in μg/mL).

[2] = system: S. aureus NB01006-AVR005, gyrA (S84L), grlA (580F) and grlB (E471K); test: microbe, parasite or virus in culture; conditions: Staphylococcus aureus, 20 h, read-out: Antibacterial activity (MIC) NB01006-AVR005
Experimental: as §1, §2

[3] = system: E. faecalis ATCC 29212 (NB04001); test: MIC by broth microdilution, E. faecalis NB04001; conditions: Enterococcus faecalis, ATCC29212, CAMHB, 35° C., 20 hours, read-out: Antibacterial activity (MIC) NB04001
Experimental: as §1, §2

[4] = system: P. aeruginosa NB52019, wild-type PAO1 strain; test: MIC by broth microdilution, P. aeruginosa NB52019; conditions: Pseudomonas aeruginosa, CAMHB, 35° C., 20 hours, read-out: Antibacterial activity (MIC) NB52019
Experimental: as §1, §2

[5] = system: S. aureus NB01080 fluoroquinolone-resistant clinical isolate; test: MIC by broth microdilution, S. aureus NB01080; conditions: Staphylococcus aureus, CAMHB, 35° C., 20 hours, read-out: Antibacterial activity (MIC) NB01080
Experimental: as §1, §2

[6] = system: S. pneumoniae ATCC 25922 (NB07001); test: MIC by broth microdilution, S. pneumoniae NB07001; conditions: Streptococcus pneumoniae, read-out: Antibacterial activity (MIC) NB07001
Experimental: as §1, §2

[7] = system: S. aureus ATCC 49951 (NB01006); test: MIC by broth microdilution, S. aureus NB01006; conditions: Staphylococcus aureus, ATCC49951, CAMHB, 35° C., 20 hours, read-out: Antibacterial activity (MIC) NB01006
Experimental: as §1, §2

[8] = ATCC25922, S. pneumoniae, CAMHB supplemented with 5% lysed horse blood, 35° C., 20 hours

Row | SMILES | MIC [1] [µg/mL] | MIC [2] [µg/mL] | MIC [3] [µg/mL] | MIC [4] [µg/mL] | MIC [5] [µg/mL] | MIC ([6]; ATCC25922, 20 h) [µg/mL] | MIC [7] [µg/mL] | MIC [6, 8] [µg/mL]
1 | C[C@H]1COc2c(N3CCN4CCC3C4)c(F)cc3cc(C(=O)O)c(=O)n1c23 (stereo partly drawn) [Example 1.60, (3S)-10-(1,4-diazabicyclo[3.2.1]octan-4-yl)-9-fluoro-3-methyl-5-oxo-2,3-dihydro-5H-[1,4]oxazino[2,3,4-ij]quinoline-6-carboxylic acid] | 1 to 32 (≈ 2.68 to 85.7 µM) | > 32 | 1 to 32 (≈ 2.68 to 85.7 µM) | 1 to 32 (≈ 2.68 to 85.7 µM) | > 32 | 1 to 32 (≈ 2.68 to 85.7 µM) | 1 to 32 (≈ 2.68 to 85.7 µM) | 
2 | C[C@H]1COc2c(N3CCC(F)(CN)C3)c(F)cc3c(CN)cc(=O)n1c23.O=C(O)C(F)(F)F (stereo partly drawn) [Example 7.1, (3S)-7-(aminomethyl)-10-(3-(aminomethyl)-3-fluoropyrrolidin-1-yl)-9-fluoro-3-methyl-2,3-dihydro-5H-[1,4]oxazino[2,3,4-ij]quinolin-5-one trifluoroacetate salt] | 1 to 32 | 1 to 32 |  | 1 to 32 | 1 to 32 |  |  | < 1
3 | C[C@H]1COc2c(N3CC[C@@H](C4(N)CC4)C3)c(F)c(C#N)c3cc(C(=O)O)c(=O)n1c23 [Example 21.1, (S)-10-((R)-3-(1-aminocyclopropyl)pyrrolidin-1-yl)-8-cyano-9-fluoro-3-methyl-5-oxo-2,3-dihydro-5H-[1,4]oxazino[2,3,4-ij]quinoline-6-carboxylic acid trifluoroacetate salt] | 1 to 32 | < 1 | < 1 | > 32 | < 1 | < 1 | < 1 | 
4 | C[C@H]1COc2c(N3CCC(F)(CN)C3)c(F)c(F)c3cc(C(=O)O)c(=O)n1c23 (stereo partly drawn) [Example 13.5, (3S)-10-(3-(aminomethyl)-3-fluoropyrrolidin-1-yl)-8,9-difluoro-3-methyl-5-oxo-2,3-dihydro-5H-[1,4]oxazino[2,3,4-ij]quinoline-6-carboxylic acid] | 1 to 32 (≈ 2.52 to 80.5 µM) | 1 to 32 (≈ 2.52 to 80.5 µM) | < 1 | > 32 | 1 to 32 (≈ 2.52 to 80.5 µM) | < 1 | < 1 | 
5 | C[C@H]1COc2c(N3CC4CC4(N)C3)ccc3cc(C(=O)O)c(=O)n1c23 (stereo partly drawn) [Example 12.6, (3S)-10-(1-amino-3-azabicyclo[3.1.0]hexan-3-yl)-3-methyl-5-oxo-2,3-dihydro-5H-[1,4]oxazino[2,3,4-ij]quinoline-6-carboxylic acid] | 1 to 32 (≈ 2.93 to 93.7 µM) | > 32 | 1 to 32 (≈ 2.93 to 93.7 µM) | > 32 | 1 to 32 (≈ 2.93 to 93.7 µM) | 1 to 32 (≈ 2.93 to 93.7 µM) | 1 to 32 (≈ 2.93 to 93.7 µM) | 
6 | C[C@H]1COc2c(N3CC4CCC(N)C4C3)c(F)cc3cc(C(=O)O)c(=O)n1c23 (single isomer, unassigned) [Example 1.28] | > 32 | > 32 | 1 to 32 (≈ 2.58 to 82.6 µM) | > 32 | > 32 | < 1 | 1 to 32 (≈ 2.58 to 82.6 µM) | 
7 | C[C@H]1COc2c(N3CC4CC4(CN)C3)c(F)cc3cc(C(=O)O)c(=O)n1c23 (some centres unmarked) [Example 1.18] | > 32 | > 32 | 1 to 32 (≈ 2.68 to 85.7 µM) | > 32 | > 32 | 1 to 32 (≈ 2.68 to 85.7 µM) | < 1 | 
8 | C[C@H]1COc2c(N3CCC(C4(N)CCC4)C3)c(F)cc3cc(C(=O)O)c(=O)n1c23 (single isomer, unassigned) [Example 1.46] | 1 to 32 (≈ 2.49 to 79.7 µM) | 1 to 32 (≈ 2.49 to 79.7 µM) | < 1 | > 32 | < 1 | < 1 | < 1 | 
9 | C[C@H]1COc2c(N3CC[C@@H]([C@@H](N)C4CC4)C3)c(F)cc3cc(C(=O)O)c(=O)n1c23 [Example 1.52, (S)-10-((R)-3-((S)-amino(cyclopropyl)methyl)pyrrolidin-1-yl)-9-fluoro-3-methyl-5-oxo-2,3-dihydro-5H-[1,4]oxazino[2,3,4-ij]quinoline-6-carboxylic acid] | < 1 | 1 to 32 (≈ 2.49 to 79.7 µM) | < 1 | > 32 | < 1 | < 1 | < 1 | 
10 | NCc1cc(=O)n2c3c(c(N4CCC(F)(CN)C4)c(F)cc13)OCC2 (centres unmarked) [Example 7.5, 7-(aminomethyl)-10-(3-(aminomethyl)-3-fluoropyrrolidin-1-yl)-9-fluoro-2,3-dihydro-5H-[1,4]oxazino[2,3,4-ij]quinolin-5-one] | > 32 | > 32 |  | > 32 | > 32 | > 32 |  | 
11 | COC(=O)c1cc2cc(F)c(N3CC[C@@H](C4(N)CC4)C3)c3c2n(c1=O)[C@@H](C)CO3 [Example 1.7, Methyl (S)-10-((R)-3-(1-aminocyclopropyl)pyrrolidin-1-yl)-9-fluoro-3-methyl-5-oxo-2,3-dihydro-5H-[1,4]oxazino[2,3,4-ij]quinoline-6-carboxylate] | > 32 | 1 to 32 (≈ 2.49 to 79.7 µM) | < 1 |  | < 1 | < 1 | < 1 | 
12 | C[C@@H]1COc2c(N3CCNCC3)c(F)cc3c(CN)cc(=O)n1c23 [Example 7.4, (R)-7-(aminomethyl)-9-fluoro-3-methyl-10-(piperazin-1-yl)-2,3-dihydro-5H-[1,4]oxazino[2,3,4-ij]quinolin-5-one] | > 32 | > 32 |  | > 32 | > 32 |  |  | > 32
13 | C[C@H]1COc2c(N3CC[C@H](N)C3)c(F)cc3c(CN)cc(=O)n1c23 [Example 7.2, (S)-7-(aminomethyl)-10-((S)-3-aminopyrrolidin-1-yl)-9-fluoro-3-methyl-2,3-dihydro-5H-[1,4]oxazino[2,3,4-ij]quinolin-5-one] | 1 to 32 (≈ 3.01 to 96.3 µM) | 1 to 32 (≈ 3.01 to 96.3 µM) |  | 1 to 32 (≈ 3.01 to 96.3 µM) | > 32 | 1 to 32 (≈ 3.01 to 96.3 µM) |  | 
14 | N#Cc1cc(=O)n2c3c(c(N4CCC(F)(CN)C4)c(F)cc13)OCC2 (centres unmarked) [Example 7.6, 10-(3-(aminomethyl)-3-fluoropyrrolidin-1-yl)-9-fluoro-5-oxo-2,3-dihydro-5H-[1,4]oxazino[2,3,4-ij]quinoline-7-carbonitrile] | > 32 | > 32 |  | > 32 | 1 to 32 (≈ 2.89 to 92.4 µM) | > 32 |  | 
15 | C[C@@H]1COc2c(N3CCC(F)(CN)C3)c(F)cc3c(CN)cc(=O)n1c23 (stereo partly drawn) [Example 7.3, (3R)-7-(aminomethyl)-10-(3-(aminomethyl)-3-fluoropyrrolidin-1-yl)-9-fluoro-3-methyl-2,3-dihydro-5H-[1,4]oxazino[2,3,4-ij]quinolin-5-one] | > 32 | > 32 |  | > 32 | > 32 | > 32 |  | 
16 | O=C(O)c1cn(C2CC2)c2cc(N3CCNCC3)c(F)cc2c1=O [CIP, Ciprofloxacin, reference compound] | < 1 |  | < 1 | < 1 |  | < 1 | < 1 | 
17 | N#Cc1cc(=O)n2c3c(c(N4CCNCC4)c(F)cc13)OCC2 [Example 7.8, 9-fluoro-5-oxo-10-(piperazin-1-yl)-2,3-dihydro-5H-[1,4]oxazino[2,3,4-ij]quinoline-7-carbonitrile] | > 32 | > 32 |  | > 32 | > 32 |  |  | > 32
18 | NCc1cc(=O)n2c3c(c(N4CCNCC4)c(F)cc13)OCC2 [Example 7.7, 7-(aminomethyl)-9-fluoro-10-(piperazin-1-yl)-2,3-dihydro-5H-[1,4]oxazino[2,3,4-ij]quinolin-5-one] | > 32 | > 32 |  | > 32 | > 32 |  |  | > 32
